# Test results from ChEMBL document CHEMBL5335769, “Design, synthesis and biological evaluation of novel diarylacylhydrazones derivatives for the efficient treatment of idiopathic pulmonary fibrosis” (Eur J Med Chem, 2023).
# Activity calls are given as the source filed them. The calls are words filed in the database; no cut-off is given here.
# Legend:
# [1] = molecular target: Signal transducer and activator of transcription 3 (Homo sapiens) (UniProt P40763); test: Binding affinity to STAT3 in human A549 cells assessed as STAT3 stabilization incubated for 1 hr by CETSA; assay type: cell-based
# Chain of Signal transducer and activator of transcription 3 (Homo sapiens) (P40763 whole entry): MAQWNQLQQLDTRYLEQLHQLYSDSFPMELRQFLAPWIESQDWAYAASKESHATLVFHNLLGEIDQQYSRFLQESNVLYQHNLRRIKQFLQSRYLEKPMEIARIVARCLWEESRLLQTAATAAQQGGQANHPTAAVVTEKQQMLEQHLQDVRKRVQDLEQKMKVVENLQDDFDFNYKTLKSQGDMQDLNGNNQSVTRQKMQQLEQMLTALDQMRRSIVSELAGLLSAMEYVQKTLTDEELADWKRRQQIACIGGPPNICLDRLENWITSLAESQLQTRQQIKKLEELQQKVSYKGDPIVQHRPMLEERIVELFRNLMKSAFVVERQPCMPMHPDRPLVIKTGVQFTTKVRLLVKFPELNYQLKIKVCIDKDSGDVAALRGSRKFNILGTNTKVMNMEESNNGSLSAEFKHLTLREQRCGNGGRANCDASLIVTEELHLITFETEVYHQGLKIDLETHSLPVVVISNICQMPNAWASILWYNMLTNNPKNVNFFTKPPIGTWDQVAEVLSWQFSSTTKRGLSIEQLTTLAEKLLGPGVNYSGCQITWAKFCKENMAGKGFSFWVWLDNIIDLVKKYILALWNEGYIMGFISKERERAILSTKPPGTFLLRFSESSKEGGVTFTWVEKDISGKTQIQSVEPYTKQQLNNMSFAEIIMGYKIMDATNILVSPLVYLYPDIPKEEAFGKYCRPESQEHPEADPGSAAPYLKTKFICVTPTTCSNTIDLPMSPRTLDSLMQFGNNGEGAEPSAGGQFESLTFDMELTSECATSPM
# [2] = tested on: Mus musculus; test: Anti-fibrotic activity in bleomycin-induced C57BL/6 mouse model of pulmonary fibrosis assessed as reduction in collagen hyperplasia at 60 mg/kg, po pretreated with bleomycin followed by compound addition once daily on day 7 to 14 by Masson's trichrome staining based analysis; assay type: functional, organism-based; settings: time 7.0 day
# [3] = tested on: NIH3T3; test: Inhibition of TGF-beta1 induced NIH-3T3 cells activation assessed as effect on collagen I at 6 uM preincubated with TGF-beta1 for 1 hr followed by compound addition and measured after 24 hrs by DAPI staining based fluorescence microscopic analysis; assay type: functional, cell-based; settings: Mus musculus
# [4] = tested on: Mus musculus; test: Anti-fibrotic activity in bleomycin-induced C57BL/6 mouse model of pulmonary fibrosis assessed as reduction in ratio of CD69+CD4+ T cells at 60 mg/kg, po administered once daily by flow cytometry analysis (reference value: 9.05%); assay type: functional, T-cell; set-up: scale not given: the % may be the effect or the level left
# [5] = tested on: Mus musculus; test: Anti-fibrotic activity in bleomycin-induced C57BL/6 mouse model of pulmonary fibrosis assessed as reduction in ratio of dendritic cells at 60 mg/kg, po pretreated with bleomycin followed by compound addition once daily on day 7 to 14 by flow cytometry analysis (reference value: 19.42%); assay type: functional; set-up: scale not given: the % may be the effect or the level left; settings: time 7 day
# [6] = tested on: Mus musculus; test: Anti-fibrotic activity in bleomycin-induced C57BL/6 mouse model of pulmonary fibrosis assessed as reduction in vimentin level at 60 mg/kg, po pretreated with bleomycin followed by compound addition once daily on day 7 to 14; assay type: functional, organism-based; settings: time 7.0 day
# [7] = tested on: NIH3T3; test: Antiproliferative activity against NIH3T3 cells at 10 uM after 72 hrs by MTT assay; assay type: functional, Mus musculus
# [8] = tested on: Mus musculus; test: Anti-fibrotic activity in bleomycin-induced C57BL/6 mouse model of pulmonary fibrosis assessed as reduction in lung to body weight ratio at 60 mg/kg, po pretreated with bleomycin followed by compound addition once daily on day 7 to 14; assay type: functional, organism-based; settings: time 7.0 day
# [9] = tested on: Mus musculus; test: Anti-fibrotic activity in bleomycin-induced C57BL/6 mouse model of pulmonary fibrosis assessed as decrease in collagen level by measuring hydroxyproline level at 30 to 60 mg/kg, po pretreated with bleomycin for 1 day followed by compound addition once daily for 21 days; assay type: functional, organism-based; settings: dose 30-60 mg/kg, time 21.0 day
# [10] = tested on: Mus musculus; test: Anti-fibrotic activity in bleomycin-induced C57BL/6 mouse model of pulmonary fibrosis assessed as reduction in collagen deposition at 30 to 60 mg/kg, po pretreated with bleomycin for 1 day followed by compound addition once daily for 22 days by Masson't trichrome staining based analysis; assay type: functional; set-up: scale not given: the % may be the effect or the level left; settings: dose 30-60 mg/kg, time 22 day
# [11] = Cmax in Sprague-Dawley rat at 20 mg/kg, po measured upto 24 hrs; assay type: ADME, organism-based; set-up: time < 24 hrs, dose 20 mg/kg, route po; settings: in vivo
# [12] = tested on: Mus musculus; test: Anti-fibrotic activity in bleomycin-induced C57BL/6 mouse model of pulmonary fibrosis assessed as reduction in alpha-SMA level at 30 to 60 mg/kg, po pretreated with bleomycin for 1 day followed by compound addition once daily for 22 days by immunohistochemical analysis; assay type: functional, organism-based; settings: dose 30-60 mg/kg, time 22.0 day
# [13] = tested on: NIH3T3; test: Antiproliferative activity against NIH3T3 cells at 3.3 uM after 72 hrs by MTT assay; assay type: functional, Mus musculus
# [14] = Aqueous solubility of compound incubated for 1 hr by HPLC analysis; assay type: physicochemical
# [15] = tested on: Mus musculus; test: Anti-fibrotic activity in bleomycin-induced C57BL/6 mouse model of pulmonary fibrosis assessed as reduction in alpha-SMA level at 60 mg/kg, po pretreated with bleomycin followed by compound addition once daily on day 7 to 14; assay type: functional, organism-based; settings: time 7.0 day
# [16] = tested on: Mus musculus; test: Anti-fibrotic activity PO dosed bleomycin-induced C57BL/6 mouse model of pulmonary fibrosis assessed as reduction in lung to body weight ratio pretreated with bleomycin for 1 day followed by compound addition once daily for 22 days; assay type: functional, organism-based; settings: dose 30-60 mg/kg, time 22.0 day
# [17] = Tmax in Sprague-Dawley rat at 20 mg/kg, po measured upto 24 hrs; assay type: ADME, organism-based; settings: in vivo
# [18] = Inhibition of TGF-beta1 induced human A549 cells migration assessed as reduction in wound closure rate at 6 uM preincubated with TGF-beta1 for 1 hr followed by compound addition and measured after 24 hrs by wound healing analysis (reference value: 46.52 to 75.83 %); assay type: functional
# [19] = Potency index, ratio of NIF IC50 to test compound IC50 for antiproliferative activity against […] cells; assay type: functional, NIH3T3
# [20] = tested on: NIH3T3; test: Inhibition of TGF-beta1 induced NIH-3T3 cells activation assessed as reduction in alpha-SMA level at 6 uM preincubated with TGF-beta1 for 1 hr followed by compound addition and measured after 24 hrs by DAPI staining based fluorescence microscopic analysis; assay type: functional, cell-based; settings: Mus musculus
# [21] = tested on: Mus musculus; test: Anti-fibrotic activity in bleomycin-induced C57BL/6 mouse model of pulmonary fibrosis assessed as reduction in pathological lesions at 60 mg/kg, po pretreated with bleomycin followed by compound addition once daily on day 7 to 14 by H and E staining based analysis; assay type: functional, organism-based; settings: time 7.0 day
# [22] = tested on: NIH3T3; test: Inhibition of TGF-beta1 induced NIH-3T3 cells activation assessed as effect on alpha-SMA at 6 uM preincubated with TGF-beta1 for 1 hr followed by compound addition and measured after 24 hrs by DAPI staining based fluorescence microscopic analysis; assay type: functional, cell-based; settings: Mus musculus
structure (smiles),measurement,setting,value
O=C(N/N=C/c1ccc([N+](=O)[O-])s1)c1ccc(OCCCCCCN2CCCCC2)cc1,Activity,[1],Active
same,Activity,[2],Active
same,inhibition,[3],Active
same,Activity,[4],3.06%
same,Activity,[5],3.84%
same,Activity,[6],Active
same,Activity,[7],81.88%
same,Activity,[8],Active
same,Activity,[9],Active
same,Activity,[10],100%
same,Cmax,[11],351 ng/mL
same,Activity,[12],Active
same,Activity,[13],70.43%
same,solubility at 1 h,[14],390 µg/mL
same,Activity,[15],Active
same,Activity,[16],Dose-Dependent Effect
same,Tmax,[17],2.17 h
same,inhibition at 6 µM,[18],61.1%
same,Ratio IC50,[19],5
same,inhibition,[20],Active
same,Activity,[21],Active
same,inhibition,[22],Active
